Experimental data published in patent US20180243387A1, “TECHNOLOGY FOR C[…] CELLS” (RIKEN, priority 2017, published 2018).

How the values were obtained:
Format in all cases: cell-based, mice
[1] = system: lipid synthesis genes that are induced by the activation of mTORC1; test: Expression levels of lipid synthesis genes by quantitative PCR; settings: FIG. 5
Experimental: Moreover, the expression levels of lipid synthesis genes that are induced by the activation of mTORC1 were analyzed by quantitative PCR. The result was as illustrated in FIG. 5.

naïve CD4SP T cells [2] = test: Cell survival rate of naïve CD4SP T cells (apoptosis inducing effect); settings: cGAMP 10 or 30 μg/mL, 15 hours, FIG. 2
type I interferon INF-α = test: Production of type I interferon INF-α in naïve CD4SP T cells by ELISA; settings: for effect of increasing production of INF-α by cGAMP: 48 hours, FIG. 7B
Experimental: 1×10^5 naïve CD4SP T cells were stimulated for 48 hours on a plate on which an anti-CD3 antibody (10 μg/mL) and an anti-CD28 antibody (10 μg/mL) were immobilized. The cell supernatant was collected and the production of the type I interferon INF-α was examined by ELISA using an anti-INF-α antibody. In innate immune cells, type I interferons are produced by the activation of TBK1 and its downstream IRF3 and IRF7. Therefore, T cells from TBK1 heteromice (Tbk1+/−) and TBK1-deficient mice (Tbk1−/−) were used (see, J Exp Med, Vol. 199, 1641-1650, 2004). The result was as illustrated in FIG. 6A.
(§1) Next, involvement of IRF3 and IRF7 in the effect of inhibiting cellular proliferation and the effect of increasing production of INF-α through STING were examined. Specifically, T cells from IRF3-deficient mice or IRF3/IRF7 double deficient mice (see Immunity, Vol. 13, 539-548, 2000; Nature, Vol. 434, 772-777, 2005) were stimulated by anti-CD3/CD28 antibodies in the presence or absence of cGAMP. 48 hours later, the proliferation of the cells and the production of INF-α were examined as described above. The results were as illustrated in FIGS. 7A and 7B.

naïve CD4SP T cells [3] = test: Cell proliferation of naïve CD4SP T cells under anti-CD3/anti-CD28 stimulation (OD 450 nm); settings: for effect of inhibiting cellular proliferation by cGAMP: FIG. 7A
Experimental: Wild type mice and STING-deficient mice were used. As acquired immune lymphocytes, T cells (in particular naïve CD4SP T cells) were used. Naïve CD4SP T cells were obtained as a CD4^+ CD25^− CD62L^+ fraction from murine spleen by sorting using FACSAria. As a STING ligand, cyclic [G(2′,5′)pA(3′,5′)p] (hereinafter, simply referred to as “cGAMP”) was used. cGAMP (manufactured by Invitrogen, Cat. No.: tlrl-nacga23-1) was used at a working concentration of 3 μg/mL, 10 μg/mL, or 30 μg/mL. The obtained T cells were stimulated with an anti-CD3 antibody (10 μg/mL) and an anti-CD28 antibody (10 μg/mL) in the presence or absence of cGAMP. […] The cells were treated for 48 hours and then the cell proliferation was measured by the optical density (OD 450 nm). The result was as illustrated in FIG. 1.
Moreover, the involvement of TBK1 in the function to inhibit cell proliferation by cGAMP was examined using TBK1 heterozygous mice and TBK1 knockout mice. The result was as illustrated in FIG. 6B.
as §1

[4] = system: cell cycle-related factors in naïve CD4SP T cells; test: Gene expression of cell cycle-related factors by quantitative PCR; settings: anti-CD3/CD28 antibodies 24 hours, FIG. 3
Experimental: As described in (1) above, naïve CD4SP T cells were stimulated with anti-CD3/CD28 antibodies for 24 hours in the presence or absence of cGAMP. Subsequently, the gene expression of cell cycle-related factors was examined by quantitative PCR according to a conventional method. The result was as illustrated in FIG. 3.

[5] = system: mTOR Complex 1 (mTORC1) signaling; test: Phosphorylated level of signal molecules by western blotting; settings: anti-CD3/CD28 antibodies 24 hours, FIG. 4
Experimental: As a signal molecule that is involved in the expression of cell proliferation-related genes, the activation level of mTOR Complex 1 (mTORC1) signaling was analyzed. Specifically, as described in (1) above, naïve CD4SP T cells were stimulated with anti-CD3/CD28 antibodies for 24 hours in the presence or absence of cGAMP. Subsequently, the phosphorylated level of indicated factors was evaluated with antibodies specific to the phosphorylated form by western blotting. As primary antibodies, the antibodies set forth in the following were used. The following primary antibodies were manufactured by Cell Signaling Technology, Inc. and the catalog numbers are indicated in the parentheses.
Anti-phospho-IRF3 (#4947)
Anti-phospho-STAT5 (#9351)
Anti-phospho-Jak3 (#5031)
Anti-phospho-STING (#13647)
As a second antibody, Goat anti-Rabbit IgG (H+L) Secondary Antibody, HRP from Thermo Fisher Scientific Inc. was used. Phosphorylated proteins were detected according to a manufacturer manual. The result was as illustrated in FIG. 4.

SMILES: Nc1nc2c(ncn2[C@@H]2O[C@@H]3COP(=O)(O)O[C@H]4[C@@H](O)[C@H](n5cnc6c(N)ncnc65)O[C@@H]4COP(=O)(O)O[C@@H]2[C@@H]3O)c(=O)[nH]1 [cGAMP, cyclic [G(2′,5′)pA(3′,5′)p]]
- expression levels of lipid synthesis-related genes [1]: decreased
- apoptosis-inducing effect (naïve CD4SP T cells [2]; etoposide 10 μM): any prominent apoptosis-inducing effect was not found
- cell survival rate (naïve CD4SP T cells [2]): decreased to some extent in a concentration-dependent manner
- effect of increasing production of INF-α by cGAMP (type I interferon INF-α; IRF3/IRF7 double deficient mice): almost completely disappeared
- effect of increasing production of INF-α by cGAMP (type I interferon INF-α; IRF3 deficient mice): almost completely disappeared
- increase in production of INF-α by cGAMP (type I interferon INF-α; TBK1-deficient mice (Tbk1−/−) versus Tbk1+/−, FIG. 6A): decreased by TBK1 knockout
- INF-α production in T cells (type I interferon INF-α; anti-CD3/anti-CD28 stimulation 48 hours, ELISA of supernatant, FIG. 6A): prominent increase
- effect of inhibiting cellular proliferation by cGAMP (naïve CD4SP T cells [3]; IRF3/IRF7 double deficient mice, 48 hours): largely decreased
- effect of inhibiting cellular proliferation by cGAMP (naïve CD4SP T cells [3]; IRF3 deficient mouse, 48 hours): partially decreased
- effect on the number of naïve CD4SP T cells (naïve CD4SP T cells [3]; STING-deficient mice (STING−/−), anti-CD3/anti-CD28 stimulation, 48 hours, FIG. 1): limited
- effect of Tbk1 knockout on inhibition of cell proliferation by cGAMP (naïve CD4SP T cells [3]; TBK1 knockout versus TBK1 heterozygous mice, FIG. 6B): almost no effect
- degree of effect on the number of cells compared with etoposide (naïve CD4SP T cells [3]; cGAMP versus 10 μM etoposide, 48 hours, FIG. 1): acted in a degree similar to etoposide
- number of naïve CD4SP T cells (cell proliferation, OD 450 nm) (naïve CD4SP T cells [3]; wild type mice (STING+/+), cGAMP 3, 10 or 30 μg/mL, anti-CD3/anti-CD28 stimulation, 48 hours, FIG. 1): decreased in a concentration-dependent manner
- expression of Cdk1 [4]: inhibited
- expression of Cdk4 [4]: inhibited
- expression of cyclin A2 [4]: inhibited
- expression of cyclin B1 [4]: inhibited
- expression of cyclin D3 [4]: inhibited
- expression of p21 [4]: increased
- level of phosphorylated 4E-BP1 [5]: decreased
- level of phosphorylated S6K [5]: decreased

SMILES: COc1cc([C@@H]2c3cc4c(cc3[C@@H](O[C@@H]3O[C@@H]5CO[C@@H](C)O[C@H]5[C@H](O)[C@H]3O)[C@H]3COC(=O)[C@H]23)OCO4)cc(OC)c1O [etoposide]
- number of cells (cell proliferation, OD 450 nm) (naïve CD4SP T cells [3]; etoposide 10 μM, STING+/+ and STING−/−, 48 hours, FIG. 1): decreased independent of the STING genotype
